Source: US7781591B2, “Substituted 3-cyanopyridines as protein kinase inhibitors” (Wyeth LLC, priority 2006, dated 2010)

Molecular target: T1, human PKCθ full length enzyme (Homo sapiens, UniProt Q04759)
T1 construct: human PKCθ full length enzyme (Panvera Cat# P2996); purchased Panvera P2996
Assay: PKCθ IMAP assay (fluorescence polarization)
Type: biochemical
Conditions: human PKCθ full length enzyme, IMAP; average value; read-out: IC50 PKCθ IMAP

T1 sequence (Q04759 whole entry): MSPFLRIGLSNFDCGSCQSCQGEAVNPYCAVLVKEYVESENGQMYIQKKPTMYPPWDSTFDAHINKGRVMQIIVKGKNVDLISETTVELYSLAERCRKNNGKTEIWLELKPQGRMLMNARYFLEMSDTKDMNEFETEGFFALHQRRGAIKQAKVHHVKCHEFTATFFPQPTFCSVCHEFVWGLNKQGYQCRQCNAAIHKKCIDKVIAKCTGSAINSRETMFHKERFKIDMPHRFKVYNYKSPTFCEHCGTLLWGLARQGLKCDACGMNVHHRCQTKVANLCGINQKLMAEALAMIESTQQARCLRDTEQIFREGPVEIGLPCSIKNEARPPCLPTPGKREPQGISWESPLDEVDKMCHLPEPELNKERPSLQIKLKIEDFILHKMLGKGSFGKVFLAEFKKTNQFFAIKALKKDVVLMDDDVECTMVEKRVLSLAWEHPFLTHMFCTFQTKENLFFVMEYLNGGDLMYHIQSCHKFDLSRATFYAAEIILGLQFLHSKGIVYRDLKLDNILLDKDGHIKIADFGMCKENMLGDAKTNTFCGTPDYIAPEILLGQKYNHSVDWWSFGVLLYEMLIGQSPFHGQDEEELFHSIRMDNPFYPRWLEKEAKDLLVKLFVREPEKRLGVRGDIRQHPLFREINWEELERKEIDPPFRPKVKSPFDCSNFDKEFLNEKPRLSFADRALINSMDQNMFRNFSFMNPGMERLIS

Row | Structure (SMILES) | IC50
1 | Cc1c(Nc2c(C#N)cncc2-c2cc3cc(CN4CCN(CCN(C)C)CC4)ccc3o2)ccc2[nH]ccc12 [Compound 396, 5-[5-({4-[2-(dimethylamino)ethyl]piperazin-1-yl}methyl)-1-benzofuran-2-yl]-4-[(4-methyl-1H-indol-5-yl)amino]nicotinonitrile] | 2 nM
2 | Cc1c(Nc2c(C#N)cncc2-c2coc(CN3CCN(C)CC3)c2)ccc2[nH]ccc12 [Compound 503, 4-[(4-methyl-1H-indol-5-yl)amino]-5-{5-[(4-methylpiperazin-1-yl)methyl]-3-furyl}nicotinonitrile] | 12 nM
3 | Cc1c(Nc2c(C#N)cncc2-c2cc3cc(CN4CCC(N5CCCCC5)CC4)ccc3o2)ccc2[nH]ccc12 [Compound 394, 5-[5-(1,4′-bipiperidin-1′-ylmethyl)-1-benzofuran-2-yl]-4-[(4-methyl-1H-indol-5-yl)amino]nicotinonitrile] | 1 nM
4 | CCCCN1CCN(CCOc2ccc(-c3cncc(C#N)c3Nc3ccc4[nH]ccc4c3C)cc2)CC1 [Compound 368, 5-{4-[2-(4-butylpiperazin-1-yl)ethoxy]phenyl}-4-[(4-methyl-1H-indol-5-yl)amino]nicotinonitrile] | 10 nM
5 | C#CCNCc1ccc2sc(-c3cncc(C#N)c3Nc3cccc4[nH]ccc34)cc2c1 [Compound 272, 4-(1H-indol-4-ylamino)-5-{5-[(prop-2-yn-1-ylamino)methyl]-1-benzothien-2-yl}nicotinonitrile] | 4 nM
6 | Cc1c(Nc2c(C#N)cncc2-c2cnc(N(C)C)nc2)ccc2[nH]ccc12 [Compound 513, 5-[2-(dimethylamino)pyrimidin-5-yl]-4-[(4-methyl-1H-indol-5-yl)amino]nicotinonitrile] | 125 nM
7 | Cc1c(Nc2c(C#N)cncc2-c2cccc(OCCCCCl)c2)ccc2[nH]ccc12 [Compound 501, 5-[3-(4-chlorobutoxy)phenyl]-4-[(4-methyl-1H-indol-5-yl)amino]nicotinonitrile] | 89 nM
8 | Cc1c(Nc2c(C#N)cncc2-c2cc3cc(CN(C)C)ccc3o2)ccc2[nH]ccc12 [Compound 382, 5-{5-[(dimethylamino)methyl]-1-benzofuran-2-yl}-4-[(4-methyl-1H-indol-5-yl)amino]nicotinonitrile] | 6 nM
9 | Cc1c(Nc2c(C#N)cncc2-c2ccc(CN3CCC(N4CCOCC4)CC3)o2)ccc2[nH]ccc12 [Compound 405, 4-[(4-methyl-1H-indol-5-yl)amino]-5-{5-[(4-morpholin-4-ylpiperidin-1-yl)methyl]-2-furyl}nicotinonitrile] | 9 nM
10 | COc1cc(-c2cncc(C#N)c2Nc2ccc3[nH]ccc3c2C)ccc1OCCN1CCOCC1 [Compound 378, 5-[3-methoxy-4-(2-morpholin-4-ylethoxy)phenyl]-4-[(4-methyl-1H-indol-5-yl)amino]nicotinonitrile] | 30 nM
11 | COc1ccc(-c2cncc(C#N)c2Nc2ccc3c(c2)OCO3)cc1OC [Compound 111, 4-(1,3-benzodioxol-5-ylamino)-5-(3,4-dimethoxyphenyl)nicotinonitrile] | 580 nM
12 | COc1cc(-c2cncc(C#N)c2Nc2ccc3[nH]ccc3c2C)ccc1OCCN(C)C [Compound 345, 5-{4-[2-(dimethylamino)ethoxy]-3-methoxyphenyl}-4-[(4-methyl-1H-indol-5-yl)amino]nicotinonitrile] | 7 nM

Results, then the compound that gave them:

Row | IC50 | Structure (SMILES)
13 | 23 nM | Cc1c(Nc2c(C#N)cncc2-c2ccc(NC(=O)NC3CC3)cc2)ccc2[nH]ccc12 [Compound 566, 1-(4-{5-cyano-4-[(4-methyl-1H-indol-5-yl)amino]pyridin-3-yl}phenyl)-3-cyclopropylurea]
14 | 180 nM | N#Cc1cncc(-c2cccc(-c3ccc(C(=O)NC4CCCC4)cc3)c2)c1Nc1ccc2[nH]ccc2c1 [Compound 123, 3′-[5-cyano-4-(1H-indol-5-ylamino)pyridin-3-yl]-N-cyclopentylbiphenyl-4-carboxamide]
15 | 80 nM | COc1ccc(-c2cncc(C#N)c2Nc2ccc3[nH]ccc3c2)cc1OCCNCc1cccnc1 [Compound 239, 4-(1H-indol-5-ylamino)-5-(4-methoxy-3-{2-[(pyridin-3-ylmethyl)amino]ethoxy}phenyl)nicotinonitrile]
16 | 120 nM | N#Cc1cncc(-c2cccc(-c3ccoc3)c2)c1Nc1ccc2[nH]ccc2c1 [Compound 142, 5-[3-(3-furyl)phenyl]-4-(1H-indol-5-ylamino)nicotinonitrile]
17 | 80 nM | CS(=O)(=O)c1cccc(-c2cncc(C#N)c2Nc2cccc3[nH]ccc23)c1 [Compound 255, 4-(1H-indol-4-ylamino)-5-[3-(methylsulfonyl)phenyl]nicotinonitrile]
18 | 36 nM | Cc1c(Nc2c(C#N)cncc2-c2ccc3[nH]ccc3c2)ccc2[nH]ccc12 [Compound 587, 5-(1H-indol-5-yl)-4-[(4-methyl-1H-indol-5-yl)amino]nicotinonitrile]
19 | 1300 nM | N#Cc1cncc(-c2cccc(-c3ccc(C(=O)NCCO)cc3)c2)c1Nc1ccc2[nH]ccc2c1 [Compound 199, 3′-[5-cyano-4-(1H-indol-5-ylamino)pyridin-3-yl]-N-(2-hydroxyethyl)biphenyl-4-carboxamide]
20 | 110 nM | N#Cc1cccc(-c2cccc(-c3cncc(C#N)c3Nc3ccc4[nH]ccc4c3)c2)c1 [Compound 132, 5-(3′-cyanobiphenyl-3-yl)-4-(1H-indol-5-ylamino)nicotinonitrile]
21 | 4730 nM | Cc1c(Nc2c(C#N)cncc2-c2ccc(NC(=O)C(C)C)cc2)ccc2[nH]ccc12 [Compound 579, N-(4-{5-cyano-4-[(4-methyl-1H-indol-5-yl)amino]pyridin-3-yl}phenyl)-2-methylpropanamide]
22 | 160 nM | COc1cc(Br)c(-c2cncc(C#N)c2Nc2ccc3[nH]ccc3c2)cc1OC [Compound 246, 5-(2-bromo-4,5-dimethoxyphenyl)-4-(1H-indol-5-ylamino)nicotinonitrile]
23 | 190 nM | CCCCNC(=O)c1ccc(-c2cccc(-c3cncc(C#N)c3Nc3ccc4[nH]ccc4c3)c2)cc1 [Compound 197, N-butyl-3′-[5-cyano-4-(1H-indol-5-ylamino)pyridin-3-yl]biphenyl-4-carboxamide]
24 | 2 nM | COCCCNCc1ccc2sc(-c3cncc(C#N)c3Nc3cccc4[nH]ccc34)cc2c1 [Compound 276, 4-(1H-indol-4-ylamino)-5-(5-{[(3-methoxypropyl)amino]methyl}-1-benzothien-2-yl)nicotinonitrile]
25 | 1 nM | COc1ccc(-c2cncc(C#N)c2Nc2cccc3[nH]ccc23)cc1OCCNCCc1ccccc1 [Compound 353, 4-(1H-indol-4-ylamino)-5-(4-methoxy-3-{2-[(2-phenylethyl)amino]ethoxy}phenyl)nicotinonitrile]
26 | 10 nM | Cc1c(Nc2c(C#N)cncc2-c2ccc(OCCNCc3cccnc3)cc2)ccc2[nH]ccc12 [Compound 433, 4-[(4-methyl-1H-indol-5-yl)amino]-5-(4-{2-[(pyridin-3-ylmethyl)amino]ethoxy}phenyl)nicotinonitrile]
27 | 120 nM | N#Cc1cncc(-c2ccoc2)c1Nc1ccc2[nH]ccc2c1 [Compound 262, 5-(3-furyl)-4-(1H-indol-5-ylamino)nicotinonitrile]
28 | 120 nM | Cc1c(Nc2c(C#N)cncc2-c2cccc(-c3ccc(C(=O)NCCCCO)cc3)c2)ccc2[nH]ccc12 [Compound 309, 3′-{5-cyano-4-[(4-methyl-1H-indol-5-yl)amino]pyridin-3-yl}-N-(4-hydroxybutyl)biphenyl-4-carboxamide]
